Source: US20070275464A1, “Chitin Oligosaccharide Elicitor-Binding Proteins” (NATIONAL INSTITUTE OF AGROBIOLOGICAL SCIENCES, priority 2004, published 2007)

What was measured:
[1] = test system: rice protoplasts; assay: Reactive oxygen production in rice protoplasts, luminol method; assay type: cell-based, Oryza sativa L. cv. Nipponbare; details: 1 μL of 100 μg/mL (GlcNAc)8, 15 minutes
Experimental: Protoplasts were prepared from cultured rice cells, and the effect of the anti-Con A-CEBiP antibodies on elicitor-responsive reactive oxygen production was examined.
Cultured rice cells were strained through a metal mesh. Four days later, these cells were placed into 14 mL of 0.1% CaCl2, 0.02% MES, 9% Mannitol solution (pH 5.6) containing 2% Cellurase RS (Yakult) and 0.05% Pectolyase Y-23, and then gently shaken at 30° C. for six hours. Cells were filtered through a 25 μm nylon mesh, and the cells on the mesh were washed with 20 mL of Washing buffer (0.1% CaCl2/0.4 M Mannitol) (Nishimura, N., Tanabe, S., He, D.-Y, Yokota, T., Shibuya, N. and Minami, E. Plant Physiol. Biochem., 39, 1105-1110 (2001)). The protoplasts were collected into a 50 mL Falcon tube and recovered by centrifugation at 600 rpm for five minutes. […]
25 μL of the reacted solution, 400 μL of 50 mM potassium phosphate buffer (pH 7.9), 25 μL of 1.1 mM luminol, and 50 μL of 14 mM potassium ferricyanide were stirred in a tube, and immediately thereafter, a chemiluminescence count was measured for ten seconds using a luminometer (Turner Designs TD-20/20, Sunnyvale, Calif.). H2O2 concentration was calculated by producing a standard curve after measuring the luminescence by a commercially available H2O2 solution (aqueous 30% H2O2 solution, Wako Pure Chemical Industry).

[2] = test system: NT rice cells; assay: Reactive oxygen production due to elicitors in NT cultured rice cells; assay type: cell-based, Oryza sativa L. cv. Nipponbare; details: (GlcNAc)8 100 ng/mL; FIG. 16
Experimental: (§1) Reactive oxygen production due to sugar elicitor treatment in NT and CEBiP-RNAi cultured rice cells was analyzed as follows: NT rice calli and CEBiP-RNAi rice calli were placed into 100 mL Erlenmeyer flasks containing 30 mL of N6 medium. After culturing at 27° C. for one week, the cells were strained, 0.6 mL of cells were transferred to 30 mL of fresh medium and cultured for another four days. 60 mg or 100 mg of each of the cultured cells were placed into a 2 mL tube, 1 mL of fresh N6 medium was added, and the cells were cultured overnight. (GlcNAc)8 (100 ng/mL), Pseudomonas aeruginosa-derived lipopolysaccharide (LPS, 50 μg/mL, Sigma), and (GlcNH2)7 (2 μg/mL) were used as elicitors. An elicitor was added to NT and CEBiP-RNAi cultured rice cells, treatment was carried out for 30 minutes or two hours, then 25 μL of the medium solution was sampled for reactive oxygen measurements. As a control, a same amount of distilled water (DW) was added, and similar treatments were carried out. Reactive oxygen was measured by adding 25 μL of the reacted solution, 400 μL of 50 mM potassium phosphate buffer (PK, pH 7.9), 25 μL of 1.1 mM luminol, and 50 μL of 14 mM potassium ferricyanide to a tube, mixing, then immediately measuring chemiluminescence counts for ten seconds in a luminometer (Turner Design TD-20/20, Sunnyvale, Calif.).

[3] = test system: NT cultured rice cells; assay: Microarray analysis of elicitor-responsive genes, NT cultured rice cells; assay type: cell-based
Text: (§2) An oligoarray (Agilent) produced from a rice full-length cDNA database was used for the microarray analyses. For the preparation of Cyanine 3 (Cy3)- and Cyanine 5(Cy5)-labeled cRNAs, RNAs isolated from each of the cultured cells of NT and two kinds of CEBiP-RNAi cultured rice cells treated with (GlcNAc)8 for two hours ((GlcNAc)8-NT, (GlcNAc)8-CEBiP-RNAi #3, and (GlcNAc)8-CEBiP-RNAi #6) as well as of cultured cells treated with water as controls were used. Methods for Cy3- and Cy5-labeling and methods for hybridizing the Cy3- and Cy5-labeled samples with slide glasses onto which 22K rice oligoprobes have been attached were carried out according to the protocol from Agilent. The combinations of hybridization reagents that were used were Cy5-labeled (GlcNAc)8-NT/Cy3-labeled NT; [2] Cy5-labeled (GlcNAc)8-CEBiP-RNAi #3/Cy3-labeled CEBiP-RNAi #3; and [3] Cy5-labeled (GlcNAc)8-CEBiP-RNAi #6/Cy3-labeled CEBiP-RNAi #6. Furthermore, experiments in which the labeling reagents were swapped (the labeled forms were interchanged) were also performed. The obtained results were analyzed at http://tos.nias.affrc.go.jp/cgi-bin/tos17/array.cgi.

[4] = test system: CEBiP-RNAi #6 rice cells; assay: Microarray analysis of elicitor-responsive genes, CEBiP-RNAi #6 cultured rice cells; assay type: cell-based
Text: as §2

[5] = test system: CEBiP-RNAi rice cells; assay: Reactive oxygen production due to elicitors in CEBiP-RNAi cultured rice cells; assay type: cell-based, Oryza sativa L. cv. Nipponbare; details: (GlcNH2)7 2 μg/mL
Experimental: as §1

[6] = test system: CEBiP gene expression; assay: Effect of elicitor on CEBiP expression in cultured cells (FIG. 10); assay type: cell-based, rice
[7] = (GlcNAc)8-NT/NT area, two hours
[8] = (GlcNAc)8 two hours vs water, NT cultured rice cells
[9] = (GlcNAc)8-CEBiP-RNAi #6/CEBiP-RNAi #6 area, two hours
[10] = (GlcNAc)8 two hours vs water, CEBiP-RNAi #6 cells
[11] = CEBiP-RNAi #6 cells vs non-transformant

CC(=O)N[C@H]1[C@H](O[C@H]2[C@H](O)[C@@H](NC(C)=O)[C@H](O[C@H]3[C@H](O)[C@@H](NC(C)=O)[C@H](O[C@H]4[C@H](O)[C@@H](NC(C)=O)C(O)O[C@@H]4CO)O[C@@H]3CO)O[C@@H]2CO)O[C@H](CO)[C@@H](O[C@@H]2O[C@H](CO)[C@@H](O[C@@H]3O[C@H](CO)[C@@H](O[C@@H]4O[C@H](CO)[C@@H](O[C@@H]5O[C@H](CO)[C@@H](O)[C@H](O)[C@H]5NC(C)=O)[C@H](O)[C@H]4NC(C)=O)[C@H](O)[C@H]3NC(C)=O)[C@H](O)[C@H]2NC(C)=O)[C@@H]1O (stereo partly shown) [(GlcNAc)8]
production of reactive oxygen increase compared to the control [1]: 1.7 times | production of reactive oxygen in NT rice cells, LPS treatment in NT defined as 100% [2]: approximately 86.3% | number of genes whose expression level decreased [3, 7]: 220 genes | number of genes whose expression level increased [3, 7]: 746 genes | FOLD INCREASE NT* AK058296 1-aminocyclopropane-1-carboxylate oxidase [3, 8]: 6.6 fold | FOLD INCREASE NT* AK058891 β-1.3 glucanase [3, 8]: 4.1 fold | FOLD INCREASE NT* AK060423 Alanine:glyoxylate aminotransferase like protein [3, 8]: 11.2 fold | FOLD INCREASE NT* AK060582 Replication protein A1(Os-RPA1) [3, 8]: 4.6 fold | FOLD INCREASE NT* AK060625 GDSL-motif lipase/hydrolase [3, 8]: 6.4 fold | FOLD INCREASE NT* AK060834 Calreticulin [3, 8]: 3.3 fold | FOLD INCREASE NT* AK063651 Harpin induced protein [3, 8]: 24.7 fold | FOLD INCREASE NT* AK066687 Shikimate kinase [3, 8]: 9.5 fold | FOLD INCREASE NT* AK066784 Small GTP-binding protein (rab5A) [3, 8]: 2.1 fold | FOLD INCREASE NT* AK067690 NAC Transcription factor [3, 8]: 2.4 fold | FOLD INCREASE NT* AK068115 Harpin induced protein [3, 8]: 43.1 fold | FOLD INCREASE NT* AK068993 PAL [3, 8]: 48.4 fold | FOLD INCREASE NT* AK069456 Peroxidase [3, 8]: 10.9 fold | FOLD INCREASE NT* AK071482 Caffeoyl-CoA 3-O-methyl-transferase [3, 8]: 11.3 fold | FOLD INCREASE NT* AK071598 Lipid transfer protein [3, 8]: 10.0 fold | FOLD INCREASE NT* AK072235 Cysteine proteinase [3, 8]: 4.3 fold | FOLD INCREASE NT* AK073072 CEBiP [3, 8]: 2.6 fold | FOLD INCREASE NT* AK100959 beta-Expansin(EXPB3) [3, 8]: 5.5 fold | FOLD INCREASE NT* AK101431 Patatin-like protein [3, 8]: 19.6 fold | FOLD INCREASE NT* AK102192 β-Galactosidase [3, 8]: 3.1 fold | FOLD INCREASE NT* AK103094 Laccase [3, 8]: 10.0 fold | FOLD INCREASE NT* AK105971 Pirin [3, 8]: 20.6 fold | number of genes whose expression level decreased [4, 9]: 90 genes | number of genes whose expression level increased [4, 9]: 361 genes | FOLD INCREASE RNAi #6 AK058891 β-1.3 glucanase [4, 10]: 11.4 fold | FOLD INCREASE RNAi #6 AK060582 Replication protein A1(Os-RPA1) [4, 10]: 2.8 fold | FOLD INCREASE RNAi #6 AK060834 Calreticulin [4, 10]: 14.2 fold | FOLD INCREASE RNAi #6 AK065812 Zea mays NADPH HC toxin reductase [4, 10]: 16.0 fold | FOLD INCREASE RNAi #6 AK066784 Small GTP-binding protein (rab5A) [4, 10]: 2.5 fold | FOLD INCREASE RNAi #6 AK067690 NAC Transcription factor [4, 10]: 3.4 fold | FOLD INCREASE RNAi #6 AK068115 Harpin induced protein [4, 10]: 10.1 fold | FOLD INCREASE RNAi #6 AK068993 PAL [4, 10]: 2.9 fold | FOLD INCREASE RNAi #6 AK072235 Cysteine proteinase [4, 10]: 5.5 fold | FOLD INCREASE RNAi #6 AK100959 beta-Expansin(EXPB3) [4, 10]: 5.4 fold | FOLD INCREASE RNAi #6 AK102192 β-Galactosidase [4, 10]: 2.8 fold | FOLD INCREASE RNAi #6 AK103094 Laccase [4, 10]: 2.1 fold | FOLD INCREASE RNAi #6 AK103707 Ribosome inactivating protein 2 [4, 10]: 27.8 fold | genes of the 746 increased in NT showing a suppression of two times or more [4, 11]: 45 genes | genes of the 746 increased in NT showing suppression of two times or more or loss of elicitor responsiveness [4, 11]: 530 genes | share of the 746 increased genes showing suppression of two times or more or loss of elicitor responsiveness [4, 11]: 71% | genes of the 361 increased in CEBiP-RNAi #6 with increased expression levels compared to NT cells ([4]; elicitor treatment): one hundred | genes whose expression level decreased with equivalent response in non-transformant and CEBiP-RNAi #6 rice cells ([4]; elicitor treatment): 44 genes | genes whose expression level increased with equivalent response in non-transformant and CEBiP-RNAi #6 rice cells ([4]; elicitor treatment): 216 genes | share of the 361 increased genes with increased expression levels compared to NT cells ([4]; elicitor treatment): approximately 28% | genes decreased in NT showing suppression of two times or more or a loss in CEBiP-RNAi #6 ([4]; vs non-transformants): 176 genes | share of genes decreased in NT showing suppression of two times or more or a loss in CEBiP-RNAi #6 ([4]; vs non-transformants): 80%

N[C@H]1[C@H](O[C@H]2[C@H](O)[C@@H](N)[C@H](O[C@H]3[C@H](O)[C@@H](N)[C@H](O[C@H]4[C@H](O)[C@@H](N)[C@H](O[C@H]5[C@H](O)[C@@H](N)[C@H](O[C@H]6[C@H](O)[C@@H](N)[C@H](O[C@H]7[C@H](O)[C@@H](N)C(O)O[C@@H]7CO)O[C@@H]6CO)O[C@@H]5CO)O[C@@H]4CO)O[C@@H]3CO)O[C@@H]2CO)O[C@H](CO)[C@@H](O)[C@@H]1O (stereo partly shown) [(GlcNH2)7]
reactive oxygen responsiveness in both CEBiP-RNAi lines [5]: Non-responsiveness

CC(=O)N[C@H]1[C@H](O[C@H]2[C@H](O)[C@@H](NC(C)=O)[C@H](O[C@H]3[C@H](O)[C@@H](NC(C)=O)[C@H](O[C@H]4[C@H](O)[C@@H](NC(C)=O)C(O)O[C@@H]4CO)O[C@@H]3CO)O[C@@H]2CO)O[C@H](CO)[C@@H](O[C@@H]2O[C@H](CO)[C@@H](O[C@@H]3O[C@H](CO)[C@@H](O[C@@H]4O[C@H](CO)[C@@H](O)[C@H](O)[C@H]4NC(C)=O)[C@H](O)[C@H]3NC(C)=O)[C@H](O)[C@H]2NC(C)=O)[C@@H]1O (stereo partly shown) [chitin oligosaccharide elicitor]
induction of expression of the target gene (CEBiP) [6]: induce expression
